Values of other authors in US20240189327A1, “SYNERGISTIC CANNABINOID ESTERS, THEIR SALTS AND USES THEREOF” (LONDON PHARMACEUTICALS AND RESEARCH CORPORATION, priority 2021, published 2024).

Tests used:
[1] = in vivo
intraocular pressure = settings: normotensive rabbit
[2] = pH 7.4

| Compound | time to maximum plasma level [1] | effect on intraocular pressure (intraocular pressure) | increase of aqueous solubility over the parent endocannabinoids [2] |
| --- | --- | --- | --- |
| C=C(C)[C@@H]1CCC(C)=C[C@H]1c1c(O)cc(CCCCC)cc1O [CBD, cannabidiol] | 4 to 6 h |  |  |
| N[C@H]1C(O)O[C@H](CO)[C@@H](O)[C@@H]1O (stereo partly shown) [glucosamine] | 0.833 h |  |  |
| CCCCC/C=C\C/C=C\C/C=C\C/C=C\CCCC(=O)NCCOP(=O)(O)O [phosphate ester pro-drug of anandamide] |  | reduced the intraocular pressure | > 16 500 fold |
